This note sets out measurements from ChEMBL document CHEMBL3638626, “1,3,5-triazine-2-amine derivatives, preparation thereof and diagnostic and therapeutic use thereof” (2015).

For this experiment, the target named is Cannabinoid receptor 2 (Homo sapiens, UniProt P34972). Briefly: Binding Assay: Affinity binding tests were performed according to the experimental conditions described by M. Rinaldi-Carmona in J. Pharmacol. Exp. Therap. 1998, 287, 644-650, with membranes derived either from rodent tissues or from recombinant cell lines in which the human CB2 receptors were expressed (Munro et al., Nature 1993, 365, 61-65). The affinity of the compounds is expressed in the form of the IC50 (concentration causing 50% inhibition of specific binding of the tritiated ligand used in vitro).
Sequence of Cannabinoid receptor 2 (P34972 whole entry): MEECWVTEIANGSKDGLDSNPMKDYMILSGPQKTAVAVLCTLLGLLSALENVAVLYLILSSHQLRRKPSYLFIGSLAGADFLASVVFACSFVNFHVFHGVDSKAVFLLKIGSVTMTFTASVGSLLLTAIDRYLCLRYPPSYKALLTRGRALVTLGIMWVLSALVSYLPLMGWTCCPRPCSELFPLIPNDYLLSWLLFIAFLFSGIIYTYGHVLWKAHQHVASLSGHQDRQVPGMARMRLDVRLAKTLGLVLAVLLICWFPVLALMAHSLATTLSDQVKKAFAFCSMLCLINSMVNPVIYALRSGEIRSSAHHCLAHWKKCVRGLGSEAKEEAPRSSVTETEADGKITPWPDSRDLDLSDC
With `CCOC(=O)COc1cc(-c2nc(NCCc3ccc(F)cc3)nc(OC)n2)ccc1Cl`, the IC50 worked out at 10 nM. The same measure for `COc1nc(NCCc2ccc(OC(F)F)cc2)nc(-c2ccc(Cl)c(C(C)(C)O)c2)n1`: 1.2 nM; for `COc1nc(NCCc2ccc(OCF)cc2)nc(-c2ccc(Cl)c(C(C)(C)O)c2)n1`: 3.9 nM. Regarding `COc1nc(NCCc2ccc(F)cc2)nc(-c2ccc(Cl)c(OCC(N)=O)c2)n1`, the IC50 is 1 nM. The same measure for `COc1nc(NCCc2ccc(F)cc2)nc(-c2ccc(OC)c(C(C)(C)O)c2)n1`: 1 nM. For the compound `COc1cccc(-c2nc(NCCc3ccc(F)cc3)nc(OC)n2)c1`, the IC50 worked out at 29 nM.

Consider `COc1nc(NCCc2ccc(F)cc2)nc(-c2ccc(Cl)c(O)c2)n1`, for which the IC50 came out at 21 nM.

Consider `COc1nc(NCCc2ccc(F)cc2)nc(-c2cccc(C(C)(C)O)c2)n1`, for which the IC50 was found to be 9 nM. The same measure for `COc1nc(NCCc2ccc(OC(F)F)cc2)nc(-c2ccc(Cl)c(OCCCNS(C)(=O)=O)c2)n1`: 41 nM; for `COc1nc(NCCc2ccc(F)cc2)nc(-c2cc3cc(F)ccc3[nH]2)n1`: 12 nM. To `COc1nc(NCCc2ccc(F)cc2)nc(-c2cc3c(Cl)cccc3[nH]2)n1` belongs 7 nM. For the compound `COc1nc(NCCc2ccc(F)cc2)nc(-c2ccc(OC)c(S(=O)(=O)NC3CC3)c2)n1`, the IC50 turned out to be 12 nM.

The term IC50 denotes the concentration that gives 50% inhibition.
